{"source": "patent US20080275002A1", "about": "“Method for Treatment of Hepatic Cancer” (TAIHO PHARMACEUTICAL CO., LTD., priority 2005, published 2008)", "key": {"[1]": {"test_system": "lung cancer", "conditions": "high dose, 60 to 80 mg/day, patients with lung cancer; cited from earlier work"}, "[2]": {"test_system": "advanced hepatocellular carcinoma", "assay": "Clinical study (Phase I/II) of oral TAC-101 in patients with advanced hepatocellular carcinoma", "assay_type": "in vivo", "source_text": "Administrations were continued for patients without dose-limiting toxicities (DLT) and without aggravation of the cancer. […] Patients administered with the recommended dose in Phase I part were subjected to data analysis under assumption as Phase II part patients.\nSpecifically, after determination of the measurable lesions in each patient, the response was classified as complete response (CR), partial response (PR), minor response (MR), stabilization of the disease (SD), or progression of the disease (PD) for the efficacy evaluation."}, "[3]": {"target": "T1, retinoic acid receptor α (RAR-α) (Homo sapiens, UniProt P10276)", "T1 sequence (P10276 1-462)": "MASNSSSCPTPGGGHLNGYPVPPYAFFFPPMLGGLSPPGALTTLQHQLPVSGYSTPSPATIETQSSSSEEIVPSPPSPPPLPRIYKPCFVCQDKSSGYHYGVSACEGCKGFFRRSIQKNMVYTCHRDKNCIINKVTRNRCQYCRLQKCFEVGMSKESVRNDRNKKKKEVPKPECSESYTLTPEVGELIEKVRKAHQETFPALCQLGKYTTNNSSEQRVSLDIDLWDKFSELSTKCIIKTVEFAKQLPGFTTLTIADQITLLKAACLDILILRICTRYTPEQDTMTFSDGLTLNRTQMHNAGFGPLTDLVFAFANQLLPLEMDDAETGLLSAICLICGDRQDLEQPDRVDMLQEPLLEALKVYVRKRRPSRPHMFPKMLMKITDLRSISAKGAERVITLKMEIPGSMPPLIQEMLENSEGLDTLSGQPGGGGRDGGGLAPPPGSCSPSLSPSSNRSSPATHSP", "conditions": "activates transcription through the receptor; cited from earlier work"}, "[4]": {"test_system": "hepatic cancer", "conditions": "animal model of hepatic cancer; cited from earlier work"}, "[5]": {"conditions": "20 mg/day, side effects approximately grade 2"}}}
{"smiles": "C[Si](C)(C)c1cc(C(=O)Nc2ccc(C(=O)O)cc2)cc([Si](C)(C)C)c1", "note": "[TAC-101, 4-[3,5-Bis(trimethylsilyl)benzamido]benzoic acid]", "values": [{"measurement": "deep vein thrombosis (DVT), dose-limiting toxicity", "setting": "[1]", "value": "frequently induces deep vein thrombosis"}, {"measurement": "tumor response", "setting": "[1]", "value": "tumor reducing effects (PR and CR)"}, {"measurement": "therapy terminated because of grade 3 increase of aspartate aminotransferase (AST)", "setting": "[2]; 20 mg/day", "value": "one"}, {"measurement": "therapy terminated because of onset of grade 3 venous thrombosis embolism (VTE)", "setting": "[2]; 20 mg/day", "value": "one"}, {"measurement": "therapy terminated because of onset of grade 4 pulmonary embolism (PE)", "setting": "[2]; 20 mg/day", "value": "one"}, {"measurement": "patients developing dose-limiting toxicity (DLT)", "setting": "[2]; 20 mg/day oral, among 7 patients, pancreatitis and fatigue", "value": "one"}, {"measurement": "share of patients with TTF 12 weeks or longer", "setting": "[2]; 20 mg/day, 9/21", "value": 42, "unit": "%"}, {"measurement": "PR or CR case (WHO criteria)", "setting": "[2]; 20 mg/day, 21 evaluable patients", "value": "not observed"}, {"measurement": "time to treatment failure (TTF)", "setting": "[2]; 20 mg/day, all 21 patients", "value": 6.6, "unit": "weeks"}, {"measurement": "patients to whom four or more courses were applicable, progress of the hepatic cancer significantly arrested", "setting": "[2]; 20 mg/day, of 21 evaluable patients", "value": 9, "unit": "patients"}, {"measurement": "patients with TTF 12 weeks or longer (progress arrested, no deterioration)", "setting": "[2]; 20 mg/day, of 21 patients", "value": 9, "unit": "patients"}, {"measurement": "AST increase, incidence", "setting": "[2]; [5]", "value": 14.3, "unit": "%"}, {"measurement": "AST increase, number of patients", "setting": "[2]; [5]", "value": 4, "unit": "patients"}, {"measurement": "alanine aminotransferase (ALT), incidence", "setting": "[2]; [5]", "value": 14.3, "unit": "%"}, {"measurement": "alanine aminotransferase (ALT), number of patients", "setting": "[2]; [5]", "value": 4, "unit": "patients"}, {"measurement": "anorexia, incidence", "setting": "[2]; [5]", "value": 10.7, "unit": "%"}, {"measurement": "anorexia, number of patients", "setting": "[2]; [5]", "value": 3, "unit": "patients"}, {"measurement": "dermatitis, incidence", "setting": "[2]; [5]", "value": 21.4, "unit": "%"}, {"measurement": "dermatitis, number of patients", "setting": "[2]; [5]", "value": 6, "unit": "patients"}, {"measurement": "fatigue, incidence", "setting": "[2]; [5]", "value": 32, "unit": "%"}, {"measurement": "fatigue, number of patients", "setting": "[2]; [5]", "value": 9, "unit": "patients"}, {"measurement": "increased triglycerides, incidence", "setting": "[2]; [5]", "value": 28.6, "unit": "%"}, {"measurement": "increased triglycerides, number of patients", "setting": "[2]; [5]", "value": 8, "unit": "patients"}, {"measurement": "myalgias, incidence", "setting": "[2]; [5]", "value": 28.6, "unit": "%"}, {"measurement": "myalgias, number of patients", "setting": "[2]; [5]", "value": 8, "unit": "patients"}, {"measurement": "nausea, incidence", "setting": "[2]; [5]", "value": 14.3, "unit": "%"}, {"measurement": "nausea, number of patients", "setting": "[2]; [5]", "value": 4, "unit": "patients"}, {"measurement": "maximum tolerance dose (MTD)", "setting": "[2]; 14 days daily oral administration, 7 days withdrawal", "value": 20, "unit": "mg/day"}, {"measurement": "binding to RAR-α", "setting": "[3]", "value": "binding selectively"}, {"measurement": "antitumor effects", "setting": "[4]", "value": "demonstrated"}]}
